Data taken from paper PMC10584170, “Machine learning-based phenotypic imaging to characterise the targetable biology of Plasmodium falciparum male gametocytes for the development of transmission-blocking antimalarials” (PLOS Pathogens, 2023).
pIC50: −log10 of the molar value. Where two headings read alike, the source gives them in different places.

Key:
[1] = system: P. falciparum male gametocytes; test: P. falciparum Dual Gamete Formation Assay (PfDGFA), male readout (exflagellation); assay type: cell-based, Plasmodium falciparum NF54; settings: for inhibition at 2 µM: 24h preincubation with gametocytes
Procedure, shortened: (§1)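 Day-14 NF54 gametocytes were incubated with compound for 24 h at 37°C under 1% O2/3% CO2/96% N2. Gametogenesis was triggered with ookinete medium (0.1 μM xanthurenic acid) plus Cy3-anti-Pfs25, and exflagellation was imaged by brightfield after cooling to 4°C then 28°C. Females were imaged by Pfs25 fluorescence 24 h later at 28°C.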

[2] = system: P. falciparum female gametocytes; test: P. falciparum Dual Gamete Formation Assay (PfDGFA), female readout (Pfs25-positive female gametes); assay type: cell-based, Plasmodium falciparum NF54; settings: for inhibition at 2 µM: 24h preincubation with gametocytes
Procedure, shortened: as §1

[3] = system: P. falciparum male gametocytes; test: PhIDDLI timecourse assay, compound added at timepoints after triggering male gametogenesis; assay type: cell-based, Plasmodium falciparum NF54
Experimental: To gain greater understanding of their activity, selected molecules displaying different inhibition phenotypes in the initial screen were re-tested. Rather than subjecting gametocytes to a 24h preincubation prior to inducing gametogenesis, compounds were added at varying timepoints after triggering male gametogenesis. Samples were then fixed 20 min post-induction, imaged and analysed similarly using the PhIDDLI pipeline.
Alternatively, if compound action over time was to be assessed, 1.5ml tubes with appropriate dilutions of test compounds were prepared for each timepoint. Gametogenesis was then triggered in the mature gametocyte culture with ookinete medium and temperature decrease from 37°C. At appropriate times, 200 μl of triggered culture was sampled and mixed with test compound. All samples were then allowed to continue gametogenesis and fixed as described previously with paraformaldehyde after 20 min (when a DMSO-treated sample could be expected to be exflagellating).
100 μl of the fixed cell suspensions were added to wells of a 24 well plate containing 1ml PBS and a poly-l-lysine-coated glass coverslip. Cells were allowed to settle and adhere to the coverslip overnight at 4°C before coverslips were transferred to a hydrophobic membrane (Parafilm) for immunofluorescence staining in a humidified, dark box. Cells were permeabilised with 0.1% Triton-X100 in PBS for 10 min before washing in PBS three times. Non-specific binding was blocked by incubating coverslips with PBS + 10% fetal bovine serum (FBS) (blocking buffer) for 1 h. Gametocytes and microgametes were visualised by labelling with an anti-alpha tubulin antibody (raised from chicken embryo brain tubulin but cross-reacts with many other species) (clone DM1A (Sigma)) 1:500 dilution in blocking buffer for 1 h, washed as before, and then stained with an anti-mouse Alexa488 secondary antibody (Thermo-Fisher) 1:1,000 dilution in blocking buffer for a further 1 h. After a final series of washes, the coverslips were mounted on glass slides with VectaShield mountant (Vector Laboratories) containing 4′,6-diamidino-2-phenylindole (DAPI) to visualise cellular DNA.
All slides were imaged using a Nikon Ti fluorescence microscope using an x100 oil objective and 1.5x zoom. For each sample, tubulin-postive, DAPI-positive stained gametocytes/gametes were imaged at random. Z-stack images with 0.3μm slices were captured for each field of view and images deconvolved and transformed by maximum intensity projection within the Nikon NIS Elements software. Within raw images, cells were initially identified by an automated analysis pipeline developed in ICY Bioimage Analysis based upon the intensity of the tubulin staining captured which assigns a region of interest (ROI) around each cell. All ROIs were reviewed by a trained operator and adjusted if necessary to reflect the true outline of the cell (for example if two cells touching had been allocated the same ROI). Raw images contained between 1 and 8 extractable cells.
Code for the PhIDDLI pipeline was written in Python 3.8 and executed by command line within a 64-bit Ubuntu virtual machine running within Oracle VM VirtualBox 6.1. […] Principle component analysis of compound phenotypes (Fig 5) was performed using ClustViz (https://biit.cs.ut.ee/clustvis/) using ln(x+1) transformation, and k-means clustering of the resultant PCA data was coded in R and executed in R Studio version 1.1.456 to identify optimum cluster using the elbow method.

HepG2 cells [4] = test: HepG2 cytotoxicity counter-screen; settings: for Mean TOX: mean of the HepG2 TOX50 values; for DGFA Tox50 HepG2: HepG2 value reported with the DGFA screen
[5] = system: P. falciparum gametocytes; test: P. falciparum Gametocyte Viability ATP Assay (PfGCT); assay type: cell-based, Plasmodium falciparum; settings: Mean TOX HepG2 over GC-ATP IC50; GREEN = >10-fold; RED = <10-fold
Excerpt: (§2) Fig 1 The activity of TCAMS compound identified in the Pf DGFA screen. (A) 85 molecules were confirmed active in the Pf DGFA. 58 were previously identified in one or more transmission-blocking screens. […] No molecule was identified with >4.7-fold greater activity against female gametocytes. Abbreviations (IC50 = concentration giving 50% inhibition, PbODA = P. berghei Ookinete Development Assay, PfDGFA = P. falciparum Dual Gamete Formation Assay, PfFGAA = P. falciparum Female Gametocyte Activation Assay, PfGCT = P. falciparum Gametocyte Viability ATP Assay).

[6] = system: P. falciparum gametocytes; parameters: method as in Almela et al 2015; settings: ref Almela et al 2015; read-out: Pf Gametocyte viability (ATP) GC-ATP IC50; cited from earlier work
HepG2 cells [7] = settings: cited from earlier work
[8] = system: P. berghei ookinete development; test: P. berghei Ookinete Development Assay (PbODA); assay type: cell-based, Plasmodium berghei; settings: Mean TOX HepG2 over Pb ODA value; GREEN = >10-fold; RED = <10-fold
Excerpt: as §2

[9] = system: P. falciparum female gametocytes; test: P. falciparum Female Gametocyte Activation Assay (PfFGAA); assay type: cell-based, Plasmodium falciparum; settings: Mean TOX HepG2 over FGAA IC50; GREEN = >10-fold; RED = <10-fold
Excerpt: as §2

[10] = system: P. falciparum female gametocytes; parameters: method as in Miguel-Blanco et al 2017; settings: ref Miguel-Blanco et al 2017; read-out: Pf female gametogenesis FGAA IC50; cited from earlier work
[11] = this study, read-out: Pf DGFA IC50 MALE
[12] = compound added concurrent with triggering male gametogenesis or 2 min later
[13] = compound added later than 2 min post-induction (up to 10 min)
[14] = this study, read-out: Pf DGFA IC50 FEM
[15] = compound added between 0 and 5 min post induction

SMILES	Cytotox ratio Pf Male [1]	pIC50 [1, 11]	Cytotox ratio Pf Female [2]	Mean TOX (HepG2 cells [4])	Cytotox ratio Pf GC-ATP [5]	pIC50 [6]	GC-ATP TOX50 HepG2 (HepG2 cells [7])	pIC50 [2, 14]	also measured
COCCN(C)CCCOc1cc2c(cc1OC)ncn2-c1cc(OCc2ccccc2C(F)(F)F)c(C(N)=O)s1.Cl [TC14]	22.0	6.21	1.4	13.65 µM					impact on proportion of cells with replicated DNA ([3]; all timepoints of addition): minimal impact; effect on exflagellation [3, 12]: substantially reduced; effect on exflagellation [3, 13]: not inhibitory
CNC(=O)c1cnc(Nc2ccc(N3CCN(C)CC3)cc2)nc1Nc1ccccc1OC.O=C(O)C(F)(F)F [TC16]	29.7	5.92	3.6	35.63 µM					cells showing apparent DNA replication ([3]; compound added concurrent with induction, fixed 20 min post-induction, DMSO control 61.4%): 21.7%; effect on exflagellation [3, 12]: substantially reduced; amounts of cells showing evidence of DNA replication ([3]; compound added during the first 2 min of male gametogenesis): markedly reduced; effect on exflagellation [3, 13]: not inhibitory
Br.c1cc(C2=NC3CCCCC3N2)ccc1OCCCOc1ccc(C2=NC3CCCCC3N2)cc1 (centres unmarked) [TC17]	27.3	5.95	3.1	30.89 µM	65.7	6.33	25 µM		
COCCCNC(=S)NN=C(C)c1ccccn1 [TC19]	20.8	6.38	21.8	8.74 µM	54.6	6.80	17 µM	6.40	DGFA Tox50 HepG2 (HepG2 cells [4]): 0.48 µM
Cc1ccc(S(=O)(=O)N(CCCNCc2cccc(O)c2)c2ccccc2)cc1 [TC44]	119.3	6.51	4.8	36.97 µM				5.12	Cytotox ratio Pb Ookinete [8]: 26220.7; Cytotox ratio Pf FGAA [9]: 32.4; pIC50 [10]: 5.94; FGAA TOX50 HepG2 (HepG2 cells [7]): 44.67 µM; ODA TOX50 HepG2 (HepG2 cells [7]): 34.6737 µM
Cc1ccc(-n2c(Sc3ncnc4sccc34)nnc2N2CCCC2)cc1 [TC46]	207.3	6.42	315.2	78.79 µM				6.60	Cytotox ratio Pb Ookinete [8]: 177427.8; Cytotox ratio Pf FGAA [9]: 160.8; pIC50 [10]: 6.31; FGAA TOX50 HepG2 (HepG2 cells [7]): 89.13 µM; ODA TOX50 HepG2 (HepG2 cells [7]): 74.1 µM
Nc1cc(C=Cc2ccc([N+](=O)[O-])o2)nc2ccccc12 [TC58]	44.7	6.80	17.9	7.15 µM	35.7	6.70	11.7 µM	6.40	
Cc1cccc2nc(-c3ccc(-c4cccc(CNCCN5CCNCC5)c4)cc3)[nH]c12.O=C(O)C(F)(F)F [TC67]	10.1	5.73	2.1	18.84 µM	22.4	6.08	13.4 µM	5.04	
CN(C)CCCn1c(N)c(-c2nc3ccccc3[nH]2)c2nc(C#N)c(C#N)nc21 [TC72]	14.8	6.29	5.1	7.53 µM	37.7	6.70	6.93 µM	5.83	
CCC1CN2CCc3cc(OC)c(OC)cc3C2CC1CC1NCCc2cc(OC)c(OC)cc21.Cl (centres unmarked) [TC73]		5.45		17.84 µM		6.92	17.68 µM	6.12	pIC50 [10]: 5.74; FGAA TOX50 HepG2 (HepG2 cells [7]): 2.24 µM; ODA TOX50 HepG2 (HepG2 cells [7]): 23.9883 µM
Cc1cc(Nc2ccncc2)n2nc(C)c(-c3ccc(Cl)cc3)c2n1 [TC79]	60.8	6.02	5.8	57.77 µM	63.5	6.04	50 µM		
O=C(C1CC1)N1c2ccccc2CCc2ccccc21 [TCMDC-123880]				100.00 µM					Selectivity Ratio M ([1]; HepG2 Tox50 versus male IC50): 180.08; Cytotox ratio Pf Male ([1]; Mean TOX HepG2 over DGFA IC50 MALE, GREEN = >10-fold, RED = <10-fold): 178.6; inhibition at 2 µM ([1]; Plasmodium falciparum, average of replicates, read-out: Average inhibition male (%)): 95.8%; inhibition at 2 µM ([1]; Plasmodium falciparum, replicate R1, read-out: % inhibition male (individual replicates) R1): 98.9%; inhibition at 2 µM ([1]; Plasmodium falciparum, replicate R2, read-out: % inhibition male (individual replicates) R2): 92.4%; inhibition at 2 µM ([1]; Plasmodium falciparum, replicate R3, read-out: % inhibition male (individual replicates) R3): 99.8%; inhibition at 2 µM ([1]; Plasmodium falciparum, replicate R4, read-out: % inhibition male (individual replicates) R4): 92.2%; pIC50 ([1]; Plasmodium falciparum, PfDGFA, 24 h incubation with gametocytes before induction, exflagellation readout, read-out: Male IC50): 6.25; Selectivity ratio F ([2]; HepG2 Tox50 versus female IC50): 10; Cytotox ratio Pf Female ([2]; Mean TOX HepG2 over DGFA IC50 FEM, GREEN = >10-fold, RED = <10-fold): 10.0; inhibition at 2 µM ([2]; Plasmodium falciparum, average of replicates, read-out: Average inhibition female (%)): 7.7%; inhibition at 2 µM ([2]; Plasmodium falciparum, replicate R1, read-out: % inhibition female (individual replicates) R1): 12.4%; inhibition at 2 µM ([2]; Plasmodium falciparum, replicate R2, read-out: % inhibition female (individual replicates) R2): -4.3%; inhibition at 2 µM ([2]; Plasmodium falciparum, replicate R3, read-out: % inhibition female (individual replicates) R3): 22.7%; inhibition at 2 µM ([2]; Plasmodium falciparum, replicate R4, read-out: % inhibition female (individual replicates) R4): 0.07%; pIC50 ([2]; Plasmodium falciparum, PfDGFA, 24 h incubation with gametocytes before induction, female gamete readout, read-out: Female IC50): < 5.00; effect on exflagellation [3, 15]: strongly inhibited exflagellation; DGFA Tox50 HepG2 (HepG2 cells [4]): 100 µM
CC[C@]1(O)C[C@@H]2CN(CCc3c([nH]c4ccccc34)[C@@](C(=O)OC)(c3cc4c(cc3OC)N(C)[C@H]3[C@@](O)(C(=O)OC)[C@H](OC(C)=O)[C@]5(CC)C=CCN6CC[C@]43[C@@H]65)C2)C1 [vinblastine, reference compound]									effect on exflagellation [3, 15]: strongly inhibited exflagellation
